Assay results reported in patent publication US9611277B2 (Janssen Pharmaceutica NV, priority 2013, dated 2017).
pKi: −log10 of the molar value.

Legend:
human orexin 1 receptor = human orexin 1 receptor (Homo sapiens, UniProt O43613); experiment: Human orexin 1 receptor radioligand binding; settings: human orexin 1 receptor; averages of 2-20 runs; read-out: hOX1 Ki
Outline: (§1)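 Ki values derive from one-site competition IC50s corrected with the radioligand's predetermined Kd, triplicates per run, averaged over 2-20 runs. Cell homogenates (rat or human OX1R) compete against [^3H]-thiazolyl-oxadiazolyl-pyrrolidine methanone in PBS; 10 μM almorexant sets nonspecific binding; scintillation counting after washing.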

rat orexin 1 receptor = rat orexin 1 receptor (Rattus norvegicus, UniProt P56718); experiment: Rat orexin 1 receptor radioligand binding; settings: rat orexin 1 receptor; averages of 2-20 runs; read-out: rOX1 Ki
Outline: as §1

human orexin 2 receptor = human orexin 2 receptor (Homo sapiens (Human), UniProt O43614); experiment: Human orexin 2 receptor radioligand binding; settings: human orexin 2 receptor; averages of 2-20 runs; read-out: hOX2 Ki
human orexin 2 receptor, sequence (O43614 whole entry): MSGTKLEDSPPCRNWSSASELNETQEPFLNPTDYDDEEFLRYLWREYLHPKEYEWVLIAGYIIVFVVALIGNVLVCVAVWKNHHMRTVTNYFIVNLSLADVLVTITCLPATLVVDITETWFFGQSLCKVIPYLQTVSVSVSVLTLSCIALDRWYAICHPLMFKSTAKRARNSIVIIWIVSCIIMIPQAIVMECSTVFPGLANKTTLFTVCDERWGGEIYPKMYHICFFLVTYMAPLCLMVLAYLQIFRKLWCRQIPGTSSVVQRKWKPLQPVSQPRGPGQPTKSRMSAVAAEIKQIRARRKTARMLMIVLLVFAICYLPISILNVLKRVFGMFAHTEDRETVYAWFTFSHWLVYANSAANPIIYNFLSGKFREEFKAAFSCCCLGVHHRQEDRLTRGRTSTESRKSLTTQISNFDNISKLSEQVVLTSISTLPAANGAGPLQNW
Outline: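 Ki derived from one-site competition IC50 using predetermined Kd of [3H]-EMPA, triplicate points, 2-20 runs averaged. Binding done on homogenized HEK293 cells stably expressing human orexin 2 receptor, DMSO ≤0.1%, with 10 μM almorexant defining nonspecific binding; filtered, washed, scintillation counted.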

Cc1cnc(C(=O)N2C[C@H]3C[C@@H](Nc4cnc(C(F)(F)F)cn4)[C@@H]2C3)c(-c2ncccn2)c1 [Example 190, (5-methyl-3-(pyrimidin-2-yl)pyridin-2-yl)((1S,4S,6R)-6-((5-(trifluoromethyl)pyrazin-2-yl)amino)-2-azabicyclo[2.2.1]heptan-2-yl)methanone]
pKi (human orexin 1 receptor): 7.92
pKi (rat orexin 1 receptor): 7.92
pKi (human orexin 2 receptor): < 5.00

Cc1ccc(-c2ncccn2)c(C(=O)N2C[C@H]3C[C@@H](Nc4cnc(C(F)(F)F)cn4)[C@@H]2C3)n1 [Example 191, (6-methyl-3-(pyrimidin-2-yl)pyridin-2-yl)((1S,4S,6R)-6-((5-(trifluoromethyl)pyrazin-2-yl)amino)-2-azabicyclo[2.2.1]heptan-2-yl)methanone]
pKi (human orexin 1 receptor): 7.89
pKi (rat orexin 1 receptor): 7.82
pKi (human orexin 2 receptor): 6.79

O=C(c1cccc(F)c1-n1nccn1)N1C[C@H]2C[C@@H](Nc3cnc(C(F)(F)F)cn3)[C@@H]1C2 [Example 192, (3-fluoro-2-(2H-1,2,3-triazol-2-yl)phenyl)((1S,4S,6R)-6-((5-(trifluoromethyl)pyrazin-2-yl)amino)-2-azabicyclo[2.2.1]heptan-2-yl)methanone]
pKi (human orexin 1 receptor): 8.15
pKi (rat orexin 1 receptor): 8.10
pKi (human orexin 2 receptor): 6.60

O=C(c1ccc(F)cc1-n1nccn1)N1C[C@H]2C[C@@H](Nc3cnc(C(F)(F)F)cn3)[C@@H]1C2 [Example 193, (4-fluoro-2-(2H-1,2,3-triazol-2-yl)phenyl)((1S,4S,6R)-6-((5-(trifluoromethyl)pyrazin-2-yl)amino)-2-azabicyclo[2.2.1]heptan-2-yl)methanone]
pKi (human orexin 1 receptor): 7.19
pKi (rat orexin 1 receptor): 7.40
pKi (human orexin 2 receptor): 5.70

O=C(c1cc(F)ccc1-n1nccn1)N1CC2CC(Nc3cnc(C(F)(F)F)cn3)C1C2 [Example 194, ((5-fluoro-2-(2H-1,2,3-triazol-2-yl)phenyl)((1S,4S,6R)-6-((5-(trifluoromethyl)pyrazin-2-yl)amino)-2-azabicyclo[2.2.1]heptan-2-yl)methanone]
pKi (human orexin 1 receptor): 8.10
pKi (rat orexin 1 receptor): 8.10
pKi (human orexin 2 receptor): 6.62

O=C(c1c(F)cccc1-n1nccn1)N1C[C@H]2C[C@@H](Nc3cnc(C(F)(F)F)cn3)[C@@H]1C2 [Example 195, (2-fluoro-6-(2H-1,2,3-triazol-2-yl)phenyl)((1S,4S,6R)-6-((5-(trifluoromethyl)pyrazin-2-yl)amino)-2-azabicyclo[2.2.1]heptan-2-yl)methanone]
pKi (human orexin 1 receptor): 8.10
pKi (rat orexin 1 receptor): 8.05
pKi (human orexin 2 receptor): 6.70

Cc1cccc(C(=O)N2C[C@H]3C[C@@H](Nc4cnc(C(F)(F)F)cn4)[C@@H]2C3)c1-n1nccn1 [Example 196, (3-methyl-2-(2H-1,2,3-triazol-2-yl)phenyl)((1S,4S,6R)-6-((5-(trifluoromethyl)pyrazin-2-yl)amino)-2-azabicyclo[2.2.1]heptan-2-yl)methanone]
pKi (human orexin 1 receptor): 8.40
pKi (rat orexin 1 receptor): 8.22
pKi (human orexin 2 receptor): 7.22

COc1ccc(C(=O)N2C[C@H]3C[C@@H](Nc4cnc(C(F)(F)F)cn4)[C@@H]2C3)c(-n2nccn2)c1 [Example 197, (4-methoxy-2-(2H-1,2,3-triazol-2-yl)phenyl)((1S,4S,6R)-6-((5-(trifluoromethyl)pyrazin-2-yl)amino)-2-azabicyclo[2.2.1]heptan-2-yl)methanone]
pKi (human orexin 1 receptor): 7.41
pKi (rat orexin 1 receptor): 7.03
pKi (human orexin 2 receptor): 5.01

O=C(c1ccc(F)cc1-c1ncccn1)N1C[C@H]2C[C@@H](Nc3cnc(C(F)(F)F)cn3)[C@@H]1C2 [Example 198, (4-fluoro-2-(pyrimidin-2-yl)phenyl)((1S,4S,6R)-6-((5-(trifluoromethyl)pyrazin-2-yl)amino)-2-azabicyclo[2.2.1]heptan-2-yl)methanone]
pKi (human orexin 1 receptor): 8.05
pKi (rat orexin 1 receptor): 7.96
pKi (human orexin 2 receptor): 5.86

O=C(c1cc(F)ccc1-c1ncccn1)N1C[C@H]2C[C@@H](Nc3cnc(C(F)(F)F)cn3)[C@@H]1C2 [Example 199, (5-fluoro-2-(pyrimidin-2-yl)phenyl)((1S,4S,6R)-6-((5-(trifluoromethyl)pyrazin-2-yl)amino)-2-azabicyclo[2.2.1]heptan-2-yl)methanone]
pKi (human orexin 1 receptor): 8.10
pKi (rat orexin 1 receptor): 8.22
pKi (human orexin 2 receptor): 6.66
